Experimental data reported in patent US9982045B2, “Anti-CDH6 antibody drug conjugates” (Novartis AG, priority 2014, dated 2018).

Experiments:
[1] = tested on: CDH6 expressing primary (patient derived) ovarian tumors; test: Patient-derived primary ovarian tumor xenograft mouse model (Example 18); assay type: in vivo, nude mice; settings: 5 mg/kg i.v. Q14D
Procedure: Mice were enrolled in the study 48 days post implant with a mean tumor volume of 178 mm^3. […] All groups were dosed at 5 mg/kg.

[2] = tested on: CDH6 expressing cell lines compared to non-expressing cell lines; test: In vitro cellular activity on panel of CDH6 expressing and non-expressing cell lines; settings: OVCAR3 and OVCAR8-CDH6+ compared to OVCAR8; FIG. 12

NOV0712: anti-CDH6 human IgG1 from HuCAL PLATINUM phage display; binds CDH6 EC5; sequence in Table 5
Anti-tumor activity (tumor volume) [1]: no inhibitory effect upon tumor growth | Cellular activity (inhibition of proliferation) [2]: No cellular activity was observed
